Read-outs that look alike come from different tables or passages of the source.
Legend:
IRAK4 = IRAK4 (Homo sapiens (Human), UniProt Q9NWZ3); experiment: IRAK4 Inhibition Assay; assay type: biochemical; details: ATP 500 μM, read-out: IRAK4 IC50
How it was run: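 Mobility-shift readout: fluorescent substrate and phosphoproduct resolved electrophoretically on Caliper LabChip 3000 after EDTA quench (35 mM). Enzyme reaction of IRAK4, substrates and test compound ran 60 min at room temperature.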

[1] = test system: TLR2 induced IL-6 in peripheral blood mononuclear cells (PBMCs); experiment: PBMC TLR2 Induced IL-6 Assay; assay type: cell-based, human; details: IL-6 by ELISA; for EC50: read-out: Cell EC50; for IC50: read-out: Cell IC50
How it was run: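 Lipoteichoic acid at 10 µg/ml served as TLR2 stimulus for 5 hours, following a 30-minute compound pretreatment at 37° C. Cells were Ficoll-isolated human PBMCs, 250000 cells/well, cultured in RPMI plus 10% heat-inactivated FCS.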

[2] = Homo sapiens, PBMC, PBMC TLR2 Induced IL-6 Assay, lipoteichoic acid stimulation
[3] = Homo sapiens, PBMC, human PBMCs, lipoteichoic acid stimulated
[4] = PBMC TLR2 Induced IL-6 Assay, lipoteichoic acid stimulation

Chain of IRAK4 (Q9NWZ3 whole entry, species assumed): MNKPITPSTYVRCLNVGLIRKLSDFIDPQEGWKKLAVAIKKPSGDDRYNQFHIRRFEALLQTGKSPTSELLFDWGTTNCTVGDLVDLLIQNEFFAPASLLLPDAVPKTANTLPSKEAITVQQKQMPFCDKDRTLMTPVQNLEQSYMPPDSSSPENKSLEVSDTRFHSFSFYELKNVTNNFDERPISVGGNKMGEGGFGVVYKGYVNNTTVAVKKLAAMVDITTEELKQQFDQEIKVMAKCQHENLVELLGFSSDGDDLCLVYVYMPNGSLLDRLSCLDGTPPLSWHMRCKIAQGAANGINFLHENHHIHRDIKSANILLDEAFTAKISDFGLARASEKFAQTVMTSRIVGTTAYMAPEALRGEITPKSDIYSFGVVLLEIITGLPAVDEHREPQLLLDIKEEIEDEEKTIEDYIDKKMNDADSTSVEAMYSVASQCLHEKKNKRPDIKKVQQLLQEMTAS

`CC(C)Nc1cc(-n2ncc3cc(Cl)cnc32)ncc1C(=O)NCCN1CCOCC1` [Example 154, 6-(5-chloro-1H-pyrazolo[3,4-b]pyridin-1-yl)-4-(isopropylamino)-N-(2-morpholinoethyl)nicotinamide] showed an IC50 (IRAK4; IRAK4 Inhibition Assay) of 12 nM and an EC50 [1, 2] of 584 nM.
Compound `CC(C)Nc1cc(-n2ncc3cc(C#N)c(N)nc32)ncc1C(=O)NC[C@@H](C)F` [Example 328] has an IC50 (IRAK4; IRAK4 Inhibition Assay) of 10 nM and an IC50 [1, 2] of 11 nM.
`CC(C)(O)[C@H](F)CNC(=O)c1cnc(-n2ncc3cc(C#N)cnc32)cc1NC1CCC(F)CC1` (stereo partly drawn) [Example 163, (R)-6-(5-cyano-1H-pyrazolo[3,4-b]pyridin-1-yl)-N-(2-fluoro-3-hydroxy-3-methylbutyl)-4-((4-fluorocyclohexyl)amino)nicotinamide] gave an IC50 (IRAK4; IRAK4 Inhibition Assay) of 3 nM and an EC50 [1, 2] of 81 nM.
`COC1CCC(NC(=O)c2cnc(-n3ncc4cc(C#N)cnc43)cc2NC(C)C)CC1` (stereo not drawn) [Example 198] gave an IC50 (IRAK4; IRAK4 Inhibition Assay) of 3.4 nM and an EC50 [1, 2] of 134 nM.
`CC(C)Nc1cc(-n2ccc3cnc(N4CC[C@H](O)C4)nc32)ncc1C(=O)NC[C@@H](F)C(C)(C)O` [Example 189, N—((R)-2-fluoro-3-hydroxy-3-methylbutyl)-6-(2-((S)-3-hydroxypyrrolidin-1-yl)-7H-pyrrolo[2,3-d]pyrimidin-7-yl)-4-(isopropylamino)nicotinamide] was tested, and the IC50 (IRAK4; IRAK4 Inhibition Assay) was 4.8 nM and the EC50 [1, 2] was 75 nM.
In the case of `CC(C)Nc1cc(-n2ccc3cc(CNC(=O)C4CC4)cnc32)ncc1C(=O)NC[C@@H](F)C(C)(C)O` [Example 505], the IC50 (IRAK4; IRAK4 0.6 nM) is reported as 13.5 nM and the IC50 [1, 3] is reported as 559 nM.
For `CC(C)(O)[C@H](F)CNC(=O)c1cnc(-n2ccc3cc(C#N)cnc32)cc1NCC1(O)CCC1` [Example 28, (R)-6-(5-cyano-1H-pyrrolo[2,3-b]pyridin-1-yl)-N-(2-fluoro-3-hydroxy-3-methylbutyl)-4-(((1-hydroxycyclobutyl)methyl)amino)nicotinamide], the IC50 (IRAK4; IRAK4 Inhibition Assay) was 2.8 nM and the EC50 [1, 2] was 80 nM.
In the case of `CC(C)(O)[C@H](F)CNC(=O)c1cnc(-n2cnc3cc(Cl)cnc32)cc1Nc1cnn(CCC#N)c1` [Example 374], the IC50 (IRAK4; IRAK4 Inhibition Assay) is reported as 3.3 nM and the IC50 [1, 2] is reported as 85 nM.
`CC(C)Nc1cc(-n2ccc3cc(C#N)cnc32)ncc1C(=O)NCCNC(=O)C(C)(C)O` [Example 126, 6-(5-Cyano-1H-pyrrolo[2,3-b]pyridin-1-yl)-N-(2-(2-hydroxy-2-methylpropanamido)ethyl)-4-(isopropylamino)nicotinamide] gave an IC50 (IRAK4; IRAK4 Inhibition Assay) of 7.5 nM and an EC50 [1, 2] of 150 nM.
Compound `CCNc1cc(-n2ccc3cc(Cl)cnc32)ncc1C(=O)NC[C@@H](F)C(C)(C)O` [Example 33, (R)-6-(5-chloro-1H-pyrrolo[2,3-b]pyridin-1-yl)-4-(ethylamino)-N-(2-fluoro-3-hydroxy-3-methylbutyl)nicotinamide] has an IC50 (IRAK4; IRAK4 Inhibition Assay) of 7.1 nM, an EC50 [1, 2] of 661 nM and an IC50 [1, 2] of 403 nM.
`CC(C)Nc1cc(-n2ncc3cc(C#N)cnc32)ncc1C(=O)NCCC1CCN(C)CC1` [Example 266] was tested, and the IC50 (IRAK4; IRAK4 Inhibition Assay) was 2.6 nM and the IC50 [1, 2] was 73 nM.
For `CC(C)Nc1cc(-n2ccc3cc(F)cnc32)ncc1C(=O)NC[C@@H](F)C(C)(C)O` [Example 38, (R)-6-(5-fluoro-1H-pyrrolo[2,3-b]pyridin-1-yl)-N-(2-fluoro-3-hydroxy-3-methylbutyl)-4-(isopropylamino)nicotinamide], the IC50 (IRAK4; IRAK4 Inhibition Assay) was 1.6 nM and the EC50 [1, 2] was 84 nM.
With `C[C@@H](CF)Nc1cc(-n2ncc3cc(C#N)cnc32)ncc1C(=O)NC[C@@H](F)C(C)(C)O` [Example 121, 6-(5-cyano-1H-pyrazolo[3,4-b]pyridin-1-yl)-N—((R)-2-fluoro-3-hydroxy-3-methylbutyl)-4-(((S)-1-fluoropropan-2-yl)amino) nicotinamide] the IC50 (IRAK4; IRAK4 Inhibition Assay) was 5.2 nM and the EC50 [1, 2] was 112 nM.
In the case of `CC(C)(O)[C@H](F)CNC(=O)c1cnc(-n2ccc3cc(C#N)cnc32)cc1Nc1cccc(C(N)=O)c1` [Example 56, (R)-4-((3-carbamoylphenyl)amino)-6-(5-cyano-1H-pyrrolo[2,3-b]pyridin-1-yl)-N-(2-fluoro-3-hydroxy-3-methylbutyl)nicotinamide], the IC50 (IRAK4; IRAK4 Inhibition Assay) is reported as 2.5 nM and the EC50 [1, 2] is reported as 102 nM.
Compound `CNC(=O)[C@H]1CC[C@H](NC(=O)c2cnc(-n3ccc4cncnc43)cc2NC2CCOCC2)CC1` [Example 82, N-((trans)-4-(methylcarbamoyl)cyclohexyl)-6-(7H-pyrrolo[2,3-d]pyrimidin-7-yl)-4-((tetrahydro-2H-pyran-4-yl)amino)nicotinamide] has an IC50 (IRAK4; IRAK4 Inhibition Assay) of 4.4 nM, an EC50 [1, 2] of 166 nM and an IC50 [1, 2] of 578 nM.
Work on `CC(=O)N[C@H]1CC[C@H](NC(=O)c2cnc(-n3ccc4cncnc43)cc2NC(C)C)CC1` [Example 84, N-((trans)-4-acetamidocyclohexyl)-4-(isopropylamino)-6-(7H-pyrrolo[2,3-d]pyrimidin-7-yl)nicotinamide] yielded an IC50 (IRAK4; IRAK4 Inhibition Assay) of 9.3 nM, an EC50 [1, 2] of 2000 nM and an IC50 [1, 2] of 2010 nM.
`CC(C)(O)[C@H](F)CNC(=O)c1cnc(-n2ncc3cc(C#N)cnc32)cc1NCCOC(F)F` [Example 598] gave an IC50 (IRAK4; IRAK4 0.6 nM) of 16.6 nM and an IC50 [1, 3] of 54 nM.
Work on `CC(C)CNC(=O)c1cnc(-n2ncc3cc(C#N)cnc32)cc1Nc1cnn(CC(F)F)c1` [Example 391] yielded an IC50 (IRAK4; IRAK4 Inhibition Assay) of 6.2 nM and an IC50 [1, 2] of 241 nM.
Work on `CC(C)Nc1cc(-n2ncc3cc(C#N)cnc32)ncc1C(=O)NCC(F)C1(O)COC1` (stereo not drawn) [Example 243] yielded an IC50 (IRAK4; IRAK4 Inhibition Assay) of 5.3 nM, an EC50 [1, 2] of 298 nM and an IC50 [1, 4] of 1990 nM.
For `CC(C)Nc1cc(-n2ncc3cc(C#N)cnc32)ncc1C(=O)NCCC1CCN(C(=O)CC#N)CC1` [Example 275], the IC50 (IRAK4; IRAK4 Inhibition Assay) was 8 nM and the IC50 [1, 2] was 115 nM.
For `C[C@@H](CO)Nc1cc(-n2ncc3cc(C#N)cnc32)ncc1C(=O)NCCC1CC1` [Example 318], the IC50 (IRAK4; IRAK4 Inhibition Assay) was 7.9 nM and the IC50 [1, 2] was 188 nM.
`CC(C)Nc1cc(-n2ccc3cc(C#N)cnc32)ncc1C(=O)NC12CCC(O)(CC1)C2` [Example 14, 6-(5-cyano-1H-pyrrolo[2,3-b]pyridin-1-yl)-N-(4-hydroxybicyclo[2.2.1]heptan-1-yl)-4-(isopropylamino)nicotinamide] gave an IC50 (IRAK4; IRAK4 Inhibition Assay) of 14.8 nM and an EC50 [1, 2] of 286 nM.
Compound `CC(C)Nc1cc(-n2ncc3cc(C#N)cnc32)ncc1C(=O)NC1CCc2nc(N)sc2C1` (stereo not drawn) [Example 165, N-(2-amino-4,5,6,7-tetrahydrobenzo[d]thiazol-6-yl)-6-(5-cyano-1H-pyrazolo[3,4-b]pyridin-1-yl)-4-(isopropylamino)nicotinamide] has an IC50 (IRAK4; IRAK4 Inhibition Assay) of 9.1 nM and an EC50 [1, 2] of 172 nM.
With `COC(=O)N1CC(Nc2cc(-n3ccc4cc(C#N)cnc43)ncc2C(=O)NC[C@@H](F)C(C)(C)O)C1` [Example 481] the IC50 (IRAK4; IRAK4 0.6 nM) was 1.9 nM, the EC50 [1, 3] was 53 nM and the IC50 [1, 3] was 595 nM.
For `CC(C)Nc1cc(-n2ncc3cc(C#N)cnc32)ncc1C(=O)Nc1ccc(N2CCOCC2)cc1` [Example 222], the IC50 (IRAK4; IRAK4 Inhibition Assay) was 5.1 nM and the EC50 [1, 2] was 305 nM.
For `CC(C)Nc1cc(-n2ccc3cc(C#N)cnc32)ncc1C(=O)NCCc1ccc(S(N)(=O)=O)cc1` [Example 58, 6-(5-cyano-1H-pyrrolo[2,3-b]pyridin-1-yl)-4-(isopropylamino)-N-(4-sulfamoylphenethyl)nicotinamide], the IC50 (IRAK4; IRAK4 Inhibition Assay) was 2.7 nM and the EC50 [1, 2] was 49 nM.
`CC(C)(O)[C@H](F)CNC(=O)c1cnc(-n2ncc3cc(C#N)cnc32)cc1Nc1ccn(CC(F)(F)F)n1` [Example 408] was tested, and the IC50 (IRAK4; IRAK4 0.6 nM) was 1.8 nM and the IC50 [1, 3] was 73 nM.
`CC(C)Nc1cc(-n2ncc3cc(C#N)cnc32)ncc1C(=O)NC[C@@H](F)C(O)C(C)C` (single isomer, unassigned) [Example 233] was tested, and the IC50 (IRAK4; IRAK4 Inhibition Assay) was 3.6 nM, the EC50 [1, 4] was 38 nM and the IC50 [1, 4] was 176 nM.
In the case of `CC(C)(O)[C@H](F)CNC(=O)c1cnc(-n2ccc3cc(C#N)cnc32)cc1N[C@H]1CC[C@](C)(O)CC1` [Example 62, 6-(5-cyano-1H-pyrrolo[2,3-b]pyridin-1-yl)-N—((R)-2-fluoro-3-hydroxy-3-methylbutyl)-4-(((trans)-4-hydroxy-4-methylcyclohexyl)amino)nicotinamide], the IC50 (IRAK4; IRAK4 Inhibition Assay) is reported as 3.6 nM and the EC50 [1, 2] is reported as 143 nM.
Work on `CC(C)(O)[C@H](F)CNC(=O)c1cnc(-n2ccc3cc(C#N)cnc32)cc1NC1CC1c1c[nH]cn1` (mixture of isomers) [Example 460] yielded an IC50 (IRAK4; IRAK4 0.6 nM) of 3.3 nM, an EC50 [1, 3] of 88 nM and an IC50 [1, 3] of 113 nM.
With `CC(C)(O)[C@H](F)CNC(=O)c1cnc(-n2ncc3cc(Cl)cnc32)cc1Nc1cnn(CCCF)c1` [Example 367] the IC50 (IRAK4; IRAK4 Inhibition Assay) was 1.3 nM and the IC50 [1, 2] was 41 nM.
`CC(C)(O)[C@H](F)CNC(=O)c1cnc(-n2ncc3cc(C#N)cnc32)cc1NC1COCC1(F)F` (stereo partly drawn) [Example 554] showed an IC50 (IRAK4; IRAK4 0.6 nM) of 5.5 nM and an IC50 [1, 3] of 370 nM.
For `CC(C)(O)[C@H](F)CNC(=O)c1cnc(-n2ncc3cc(C#N)cnc32)cc1NC12CC3CC(CC(O)(C3)C1)C2` [Example 624], the IC50 (IRAK4; IRAK4 0.6 nM) was 2.1 nM and the IC50 [1, 3] was 68 nM.
With `CC(C)Nc1cc(-n2ncc3cc(C#N)cnc32)ncc1C(=O)NCCN1CCS(=O)(=O)CC1` [Example 211] the IC50 (IRAK4; IRAK4 Inhibition Assay) was 8.1 nM and the EC50 [1, 2] was 87 nM.
In the case of `CC(C)(O)[C@H](F)CNC(=O)c1cnc(-n2ncc3cc(C#N)c(N)nc32)cc1NC12CC3CC(CC(O)(C3)C1)C2` [Example 632], the IC50 (IRAK4; IRAK4 0.6 nM) is reported as 2.6 nM and the IC50 [1, 3] is reported as 149 nM.
Compound `CNC(=O)[C@H]1CC[C@H](NC(=O)c2cnc(-n3ccc4cc(C#N)cnc43)cc2N[C@@H](C)CO)CC1` [Example 89, 6-(5-cyano-1H-pyrrolo[2,3-b]pyridin-1-yl)-4-(((S)-1-hydroxypropan-2-yl)amino)-N-((1r,4S)-4-(methylcarbamoyl)cyclohexyl)nicotinamide] has an IC50 (IRAK4; IRAK4 Inhibition Assay) of 3.3 nM and an EC50 [1, 2] of 90 nM.
Compound `CC(C)Nc1cc(-n2ncc3cc(C#N)cnc32)ncc1C(=O)Nc1ccc(C(C)(C)O)cn1` [Example 236] has an IC50 (IRAK4; IRAK4 Inhibition Assay) of 11.6 nM and an EC50 [1, 2] of 323 nM.
